For orientation: IC50 means the concentration that gives 50% inhibition.

The target in the assay is GAR formyltransferase (Lactobacillus casei). Briefly: Inhibition of the GAR formyl transferase in lactobacillus casei.

`CC(Cc1ccc(C(=O)NC(CCC(=O)O)C(=O)O)cc1)Cc1cnc2nc(N)[nH]c(=O)c2n1` (stereo unspecified) registered an IC50 greater than 20 µM.

The values above are taken from BindingDB's records for doi:10.1021/jm00126a022 (University of South Alabama, 1989).
